Experimental findings from US11529350B2, “Tyrosine kinase non-receptor 1 (TNK1) inhibitors and uses thereof” (Sumitomo Pharma Oncology, Inc., priority 2019, dated 2022) are described below.

One assay has as its target T1, TNK1 (Homo sapiens, UniProt Q13470).
T1 sequence (Q13470 1-666): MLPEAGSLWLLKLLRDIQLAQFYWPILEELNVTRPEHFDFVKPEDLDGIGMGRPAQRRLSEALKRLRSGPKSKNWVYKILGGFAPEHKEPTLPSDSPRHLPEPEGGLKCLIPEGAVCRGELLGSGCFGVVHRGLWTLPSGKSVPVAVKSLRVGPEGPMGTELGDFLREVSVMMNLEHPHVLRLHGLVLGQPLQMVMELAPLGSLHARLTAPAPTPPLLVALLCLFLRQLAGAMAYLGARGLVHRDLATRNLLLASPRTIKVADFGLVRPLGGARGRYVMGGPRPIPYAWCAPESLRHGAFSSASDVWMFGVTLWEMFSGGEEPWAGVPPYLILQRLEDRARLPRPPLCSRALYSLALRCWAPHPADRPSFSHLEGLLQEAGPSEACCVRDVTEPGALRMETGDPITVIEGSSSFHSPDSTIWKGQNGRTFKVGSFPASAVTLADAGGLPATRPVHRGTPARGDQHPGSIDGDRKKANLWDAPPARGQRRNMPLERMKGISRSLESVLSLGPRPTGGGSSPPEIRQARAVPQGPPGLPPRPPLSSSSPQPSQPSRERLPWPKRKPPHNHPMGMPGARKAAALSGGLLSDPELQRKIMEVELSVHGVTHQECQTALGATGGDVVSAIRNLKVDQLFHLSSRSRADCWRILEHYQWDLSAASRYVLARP
Kind of assay: RBC HotSpot Kinase Assay. It counts as biochemical. Also on record: purchased Reaction Biology Corp., Malvern, Pa. Conditions: ATP 10 μM. The method, then:
The RBC HotSpot Kinase assay (Reaction Biology Corp., Malvern, Pa.) was used to evaluate the ability of test compounds to modulate (e.g., inhibit) the enzymatic activity of human TNK1 (UniProt Accession No. Q13470) in the following reaction:
Reagent: Base Reaction buffer; 20 mM Hepes (pH 7.5), 10 mM MgCl2, 1 mM EGTA, 0.02% Brij35, 0.02 mg/ml BSA, 0.1 mM Na3VO4, 2 mM DTT, 1% DMSO. Required cofactors were added individually to each kinase reaction.
Compound handling: Test compounds were dissolved in 100% DMSO to specific concentration. The serial dilution was conducted by Integra Viaflo Assist in DMSO.
1. Prepared substrate (peptide substrate, poly[Glu:Tyr] (4:1), 0.2 mg/ml; ATP 10 μM) in freshly prepared Reaction Buffer;
2. Delivered any required cofactors to the substrate solution;
3. Delivered kinase (TNK1) into the substrate solution and gently mixed;
4. Delivered compounds in 100% DMSO into the kinase reaction mixture by Acoustic technology (Echo550; nanoliter range), incubated for 20 minutes at room temperature;
5. Delivered ^33P-ATP (specific activity 10 μCi/μl) into the reaction mixture to initiate the reaction;
6. Incubated for 2 hours at room temperature;
7. Detected radioactivity by filter-binding method;
8. Kinase activity data were expressed as the percent remaining kinase activity in test samples compared to vehicle (dimethyl sulfoxide) reactions. IC50 values and curve fits were obtained using Prism (GraphPad Software).

The subject of the next assay is A549 cells. As to the kind of experiment: Combination with bortezomib, A549 cell confluency (Incucyte). In kind it is cell-based. Particulars: Example No. 13 10 nM + Bortezomib 1 nM, over 200 hours. How it is done: A549 cells were seeded in log phase (e.g., at 40-60% confluency) in a well plate. Drug treatments were: no drug treatment, DMSO, bortezomib at 50 nM, 10 nM, 5 nM, 2 nM or 1 nM, Example No. 13 at 10 nM, and bortezomib 50 nM, 10 nM, 5 nM, 2 nM or 1 nM combined with Example No. 13 at 10 nM. The DMSO concentrations were kept constant (including DMSO control) to control for any confounding DMSO toxicity.
Drug addition protocol: On day 1, cells were seeded at 60,000 cells/well, and incubated for 24 hours to allow adherence. On day 2, media was aspirated and replaced with 500 μl of the drug media preparations described below in correlating wells. The plates were placed in Incucyte for 7-14 days, and cell confluency was measured every 2 hours. […]

Assay [1] has as its system pSTAT5 in L540 xenograft tumors. As to the kind of experiment: pSTAT5 assay in L540 xenograft tumors (ELISA). In kind it is in vivo, mouse. Conditions: 10 mg/kg and 25 mg/kg treated arms. The method, then: Effects of test compounds on phosphorylation of signal transducer and activator of transcription 5 (STAT5) were determined in L540 xenograft tumors.
Methods: Each treatment group included 10 NOD SCID mice. Each mouse was injected with 1×10^7 L540 cells (86% viable at the time of injection), and treated with a single dose of test compound (10 mg/kg or 25 mg/kg) 10 days post L540 cell injection. Tumors were collected 24 hours post treatment, snap frozen, and kept at −80° C. for 24 hours post-harvest. Phosphorylated STAT5 (pSTAT5) levels were measured in the lysates using the STAT5 AB pY694/699 ELISA Kit (Abcam, Cambridge, UK, ab176656). The standard Abcam ELISA protocol was followed, except for 10× more protein than what Abcam recommends was used.
(An ELISA detects its analyte on a solid surface through an enzyme-linked reagent.)

What is called IC50 is the midpoint of a concentration-inhibition curve. Lower therefore signals greater potency in that assay. On TNK1, `COc1cc(N2CCN(C)CC2)ccc1Nc1ncc(Cl)c(Nc2cccnc2N2CCCC2=O)n1` [compound 2, 1-(3-((5-chloro-2-((2-methoxy-4-(4-methylpiperazin-1-yl)phenyl)amino)pyrimidin-4-yl)amino)pyridin-2-yl)pyrrolidin-2-one] had an IC50 below 5 nM.

`CN1CCN(c2ccc(Nc3ncc(Cl)c(Nc4cccnc4N4CCCC4=O)n3)cc2)CC1` [compound 1, 1-(3-((5-chloro-2-((4-(4-methylpiperazin-1-yl)phenyl)amino)pyrimidin-4-yl)amino)pyridin-2-yl)pyrrolidin-2-one] returned an IC50 against TNK1 below 5 nM.

In turn, `CC(C)Oc1cc(N2CCN(C)CC2)ccc1Nc1ncc(Cl)c(Nc2cccnc2N(C)C)n1` [compound 4, 5-chloro-N^4-(2-(dimethylamino)pyridin-3-yl)-N^2-(2-isopropoxy-4-(4-methylpiperazin-1-yl)phenyl)pyrimidine-2,4-diamine] yielded an IC50 against TNK1 of 15 to 50 nM.

In the case of `CCOc1cc(N2CCN(C)CC2)ccc1Nc1ncc(Cl)c(Nc2cccnc2N(C)C)n1` [compound 3, 5-chloro-N^4-(2-(dimethylamino)pyridin-3-yl)-N^2-(2-ethoxy-4-(4-methylpiperazin-1-yl)phenyl)pyrimidine-2,4-diamine], the IC50 on TNK1 lay in the range of 15 to 50 nM.

On to `CN1CCN(c2c(Cl)cc(Nc3ncc(Cl)c(Nc4cccnc4N4CCCC4=O)n3)c3ccccc23)CC1` [Example No. 18, 1-(3-((5-chloro-2-((3-chloro-4-(4-methylpiperazin-1-yl)naphthalen-1-yl)amino)pyrimidin-4-yl)amino)pyridin-2-yl)pyrrolidin-2-one], for which the IC50 against TNK1 was below 5 nM.

For `COc1cc(N2CCN(C)CC2)c(Cl)cc1Nc1ncc(Cl)c(Nc2cccnc2N2CCCC2=O)n1` [Example No. 13, 1-(3-((5-chloro-2-((5-chloro-2-methoxy-4-(4-methylpiperazin-1-yl)phenyl)amino)pyrimidin-4-yl)amino)pyridin-2-yl)pyrrolidin-2-one], the “cell growth inhibition, combination” value in the assay with A549 cells is given as “approximately 50%”. Also, the IC50 against TNK1 was below 5 nM.

At TNK1, `CN1CCN(c2ccc(Nc3ncc(Cl)c(Nc4cccnc4N(C)C)n3)cc2)CC1` [compound 5, 5-chloro-N^4-(2-(dimethylamino)pyridin-3-yl)-N^2-(4-(4-methylpiperazin-1-yl)phenyl)pyrimidine-2,4-diamine] registered an IC50 of 5 to 15 nM.

Turning to `COc1cc(N2CCN(C)CC2)c(C)cc1Nc1ncc(Cl)c(Nc2cccnc2N2CCNC2=O)n1` [compound 9, 1-(3-((5-chloro-2-((2-methoxy-5-methyl-4-(4-methylpiperazin-1-yl)phenyl)amino)pyrimidin-4-yl)amino)pyridin-2-yl)imidazolidin-2-one], the IC50 at TNK1 was below 5 nM. Besides, the “dose dependence of p-STAT5 decrease” value in assay [1] is “showed some dose dependence”.

`COc1cc(N2CCN(C)CC2)c(C)cc1Nc1ncc(Br)c(Nc2cccnc2N(C)C)n1` [compound 10, 5-bromo-N^4-(2-(dimethylamino)pyridin-3-yl)-N^2-(2-methoxy-5-methyl-4-(4-methylpiperazin-1-yl)phenyl)pyrimidine-2,4-diamine] had an IC50 against TNK1 below 5 nM. The “dose dependence of p-STAT5 decrease” value in assay [1] was “showed some dose dependence”.

Molecule `COc1cc(N2CCN(C)CC2)c(Cl)cc1Nc1ncc(Cl)c(Nc2cccnc2N2CCNC2=O)n1` [Example No. 21, 1-(3-((5-chloro-2-((5-chloro-2-methoxy-4-(4-methylpiperazin-1-yl)phenyl)amino)pyrimidin-4-yl)amino)pyridin-2-yl)imidazolidin-2-one] came in with an IC50 at TNK1 below 5 nM.
